One data set deals with CYP2C9 (Homo sapiens, UniProt P11712). Put plainly: CYP inhibition in human liver microsomes, tolbutamide 6-hydroxylation (TOLHY). The following applies: CYP2C9, TOLHY, SKN 10 μM.
A short description of data set [1]: NADPH-dependent phase I metabolic stability in dog liver microsomes. In kind it is in vitro ADME. As to the method:
(§1) Metabolic stability was measured by monitoring the amount of parent compound that remained in an incubation mixture at designated incubation time points. For the phase I metabolism study, SKN (100 μM) was incubated with liver microsomes (1 mg/mL, rat, mouse, and dog; and 0.5 mg/mL, human), and an NADPH-generation cocktail consisting of nicotinamide adenine dinucleotide phosphate (NADP^+, 1 mM), glucose-6-phosphate (5 mM), glucose-6-phosphate dehydrogenase (1 unit/mL), and MgCl2 (10 mM) in potassium phosphate buffer (0.1 M, pH 7.4) in a total volume of 1 mL. To study phase II glucuronide conjugative metabolism, uridine 5′-diphosphoglucuronic acid (UDPGA) (2 mM) was added as a cofactor. The mixture was incubated in a shaking water bath, and the enzyme reaction was initiated by the addition of NADP^+, UDPGA, or both. Aliquots (100 μL) were removed at 0, 5, 15, 30, 45, and 60 min, and the reaction was terminated by adding two volumes of ice-cold methanol. […] The half-life of SKN was obtained by plotting the remaining amount of SKN against time using Prism 3.0 software (GraphPad, La Jolla, CA, USA). Hepatic intrinsic clearance (CLint, hepatic) was calculated using the following formula [20]:CLint, hepatic = (0.693/t1/2) × (g liver weight/kg body weight) × (mL incubation/mg of microsomal protein) × (mg microsomal protein concentration/g of liver)
(§2) The DAD was set at 280 nm.

Data set [2] has as its system hPXR-mediated CYP3A4 promoter. Briefly: PXR-mediated CYP3A4 promoter luciferase assay in HepG2 cells. It counts as cell-based, human. The following applies: pcDNA3-PXR-transfected HepG cells, SKN 20 μM, 24 h. On the procedure:
HepG2 cells (American Tissue Culture Collection, Manassas, VA, USA) were maintained in Dulbecco’s modified Eagle’s essential medium (DMEM), containing 10% fetal bovine serum, 1% nonessential amino acids, 1% GlutaMAX®, and 1% antibiotics/antimycotics at 37 °C in a 5% CO2 atmosphere. The expression plasmid encoding the human constitutive androstane receptor (hCAR; pcDNA3-CAR) and the pGL3-CYP2B6 luciferase construct were kindly provided by Dr. Hongbing Wang (University of Maryland, College Park, MD, USA). The plasmid encoding the human pregnane X receptor (hPXR; pcDNA3-PXR) and the pGL3-CYP3A4 luciferase construct were obtained from Dr. Masahiko Negishi at the National Institutes of Health (Bethesda, MD, USA). Cells were seeded at a density of 1.5 × 10^5 cells/well into a 24-well plate. The next day, the cells were transfected with 0.25 μg of either pcDNA3-CAR or pcDNA3-PXR and 0.25 μg of a promoter luciferase plasmid (either pGL3-CYP2B6 or pGL3-CYP3A4) using Lipofectamine 2000 (Invitrogen, Carlsbad, CA, USA) according to the manufacturer’s instructions. […] The cells were harvested and luciferase activity was measured as described previously.

The target of another data set is T1, estrogen receptor (ER) (Homo sapiens, UniProt P03372).
T1 construct: endogenous in cells
T1 sequence (P03372 1-595): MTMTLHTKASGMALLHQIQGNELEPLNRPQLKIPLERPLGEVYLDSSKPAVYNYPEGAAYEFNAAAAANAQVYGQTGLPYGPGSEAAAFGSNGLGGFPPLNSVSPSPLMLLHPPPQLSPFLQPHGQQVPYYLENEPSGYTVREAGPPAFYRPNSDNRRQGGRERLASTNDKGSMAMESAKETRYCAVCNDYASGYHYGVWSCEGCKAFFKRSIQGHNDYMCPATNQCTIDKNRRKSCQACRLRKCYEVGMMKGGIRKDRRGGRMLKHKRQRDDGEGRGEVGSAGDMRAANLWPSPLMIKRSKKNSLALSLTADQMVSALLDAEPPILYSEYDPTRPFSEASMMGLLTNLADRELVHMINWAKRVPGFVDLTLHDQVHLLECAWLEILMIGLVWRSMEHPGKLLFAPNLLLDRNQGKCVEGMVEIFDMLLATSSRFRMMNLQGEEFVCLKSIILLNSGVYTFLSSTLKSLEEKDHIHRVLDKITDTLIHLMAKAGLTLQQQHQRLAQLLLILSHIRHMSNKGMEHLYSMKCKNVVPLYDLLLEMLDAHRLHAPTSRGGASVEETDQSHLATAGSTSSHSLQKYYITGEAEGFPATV
Put plainly: Estrogen receptor agonist-like activity in ER-positive human breast cancer cells. The following applies: preliminary data, not shown. In kind it is cell-based.

The nature of data set [3]: NADPH-dependent phase I metabolic stability in rat liver microsomes. In kind it is in vitro ADME. As to the method: as §1, §2
The nature of data set [4]: UDPGA-dependent metabolic stability in mouse liver microsomes. The note with it: for half-life at 100 µM / CLint scaled at 100 µM: mouse, pH 7.4, mouse liver microsomes; for CLint scaled at 100 µM: read-out: CLint, hepatic. It counts as in vitro ADME. On the procedure: as §1, §2
In general terms: Liver microsomes are a subcellular fraction often used to study metabolism.

Chain of CYP2C9 (P11712 whole entry): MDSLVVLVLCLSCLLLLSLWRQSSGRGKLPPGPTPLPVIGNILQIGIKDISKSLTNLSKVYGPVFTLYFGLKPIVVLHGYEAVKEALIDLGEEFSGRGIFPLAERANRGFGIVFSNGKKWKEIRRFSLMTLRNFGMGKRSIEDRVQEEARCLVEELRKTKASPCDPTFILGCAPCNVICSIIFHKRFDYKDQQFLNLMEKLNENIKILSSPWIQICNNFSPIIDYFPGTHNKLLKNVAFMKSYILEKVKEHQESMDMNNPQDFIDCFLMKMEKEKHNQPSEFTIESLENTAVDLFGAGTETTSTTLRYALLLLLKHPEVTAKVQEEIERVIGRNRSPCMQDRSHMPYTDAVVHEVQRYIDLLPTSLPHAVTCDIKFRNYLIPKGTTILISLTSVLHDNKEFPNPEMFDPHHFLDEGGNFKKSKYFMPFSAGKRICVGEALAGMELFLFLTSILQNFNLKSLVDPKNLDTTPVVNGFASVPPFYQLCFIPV
Protocol for CYP2C9: The formation of a metabolite from a CYP isozyme-specific phenotyping reaction (Table 4) was monitored. Each substrate (200 μM), along with SKN (10 μM), was incubated with human liver microsomes (0.5 mg/mL) and an NADPH-generating system in 0.1 M potassium phosphate buffer (pH 7.4) at 37 °C for 60 min in a total volume of 200 μL in a shaking water bath. The metabolic reaction was initiated by adding NADP^+ (1 mM) and stopped by adding 10 μL of trichloroacetic acid. In some experiments, the microsomes were pre-incubated with SKN for 15 min prior to the addition of the cofactor, in order to determine the time-dependent inhibitory effect. […] In contrast, co-incubation refers to experiments in which microsomes and cofactors were incubated in the presence of SKN. After centrifugation of incubation samples at 12,000× g for 15 min at 4 °C, the supernatant (20 μL) was injected into an HPLC-DAD system to analyze the metabolites formation (Supplementary Materials).
The DAD was set at 248 nm for phenacetin O-deethylation (PCOD), 298 nm for bupropion hydroxylation (BPHY), 276 nm for diclofenac 4′-hydroxylation (DCHY), 230 nm for tolbutamide 6-hydroxylation (TOLHY), 280 nm for dextromethorphan O-demethylation (DEXOD), and 250 nm for testosterone 6β-hydroxylation (TSTHY) and testosterone β-D-glucuronidation (TSTG).

By half-life is commonly meant the time needed for the level to fall by half in the phase considered. For the molecule `COc1cc(O)c2c(c1)OC(c1ccc(O)cc1)CC2=O` (racemic) [SKN, (+/−) 7-O-methylnaringenin], the “% Inhibition in Pre-Incubation” value at CYP2C9 (15 min pre-incubation) turned out to be 10.1 ± 1.2%. On CYP2C9 (human liver microsomes), the “% Inhibition in Co-Incubation” value turned out to be 2.0 ± 0.6%. The “Amount Remaining at 30 min (%)” value in data set [1] (dog liver microsomes 1 mg/mL, SKN 100 μM) stood at 18.5%; in data set [3] (rat liver microsomes 1 mg/mL, SKN 100 μM), 29.0%; in data set [4] (NADPH +), 0.0%; in data set [4] (NADPH −), 1.8%. Also, the “amount of SKN remaining after 60 min of incubation” value in data set [1] (dog liver microsomes, 60 min) is reported as 18.5%. Besides, the half-life at 100 µM in data set [1] (pH 7.4, dog liver microsomes) was determined as 2.7 min; in data set [3] (pH 7.4, rat liver microsomes), 10.1 min; in data set [4] (NADPH +), 0.9 min; in data set [4] (NADPH −) it was 3.8 min. Further, the CLint scaled at 100 µM in data set [1] (pH 7.4, dog liver microsomes, read-out: CLint, hepatic) turned out to be 641 mL/min/kg; in data set [3] (pH 7.4, rat liver microsomes, read-out: CLint, hepatic), 124 mL/min/kg; in data set [4] (NADPH +), 3280 mL/min/kg; in data set [4] (NADPH −), 802 mL/min/kg. In addition, the CYP3A4-luciferase activity increase in data set [2] was 3.8 fold. Further, on estrogen receptor (ER), the “estrogen receptor (ER) agonist-like activity” value is reported as “agonist-like activity”. The “t1/2” value in data set [4] (NADPH +) is reported as 0.91 min.

For the origin of these results see paper PMC6100415, “Hepatic Metabolism of Sakuranetin and Its Modulating Effects on Cytochrome P450s and UDP-Glucuronosyltransferases” (Molecules : A Journal of Synthetic Chemistry and Natural …, 2018).
